Measured values published in the NIST ThermoML archive (doi:10.1021/je200093f).
“And” between values parts separate entries of the source, which are not always exact repeats. Equal entries are not always repeated.

Columns and labels:
[1] = 298.15 K; 101.33 kPa; Liquid; Vibrating tube method
[2] = xn = mol fraction of the nth substance listed; conditions: 298.15 K, 101 kPa, Liquid, Vibrating tube method
[3] = excess molar enthalpy (molar enthalpy of mixing); xn = mol fraction of the nth substance listed; conditions: 298.15 K, 101 kPa, Liquid, Calvet calorimetry

Cn1ccnc1 [1-methylimidazole]
Conditions | mass density [kg/m3]
[1] | 1031.14

Cn1ccnc1 [1-methylimidazole] + CO
Conditions | excess molar enthalpy, x1 = 0.005084 | excess molar enthalpy, x1 = 0.007607 [kcal/mol] | excess molar enthalpy, x1 = 0.01012 [kcal/mol] | excess molar enthalpy, x1 = 0.01261 [kcal/mol] | excess molar enthalpy, x1 = 0.0151 [kcal/mol] | mass density, x1 = 0.005084 | mass density, x1 = 0.007607 | mass density, x1 = 0.01012 | mass density, x1 = 0.01261 | mass density, x1 = 0.0151
[2] | – | – | – | – | – | 789.231 kg/m3 and 789.234 kg/m3 | 790.606 kg/m3 and 790.615 kg/m3 | 791.972 kg/m3 and 791.975 kg/m3 | 793.304 kg/m3 and 793.323 kg/m3 | 794.617 kg/m3 and 794.633 kg/m3
[3] | -0.00838 kcal/mol and -0.00841 kcal/mol | -0.0126 | -0.0167 | -0.0208 | -0.0249 | – | – | – | – | –

Cn1ccnc1 [1-methylimidazole] + O
Conditions | excess molar enthalpy, [3] [kcal/mol] | mass density, [2] [kg/m3]
x1 = 0.001133 | -0.00255 | 997.279
x1 = 0.001134 | -0.00254 | 997.281
x1 = 0.002264 | -0.00507 | 997.513
x1 = 0.002265 | -0.00505 | 997.514
x1 = 0.003392 | -0.00759 | 997.75
x1 = 0.003394 | -0.00757 | 997.75
x1 = 0.004518 | -0.0101 | 997.985
x1 = 0.00452 | -0.01 | 997.986
x1 = 0.005642 | -0.0126 | 998.222
x1 = 0.005644 | -0.0125 | 998.246
x1 = 0.006765 | -0.015 | 998.459
x1 = 0.006766 | -0.015 | 998.483

Cc1cccc(C)n1 [2,6-dimethylpyridine]
Conditions | mass density [kg/m3]
[1] | 918.19

Cc1cccc(C)n1 [2,6-dimethylpyridine] + CO
Conditions | excess molar enthalpy, [3] | mass density, [2]
x1 = 0.001741 | -0.00321 kcal/mol and -0.00319 kcal/mol | –
x1 = 0.003476 | -0.00637 kcal/mol and -0.00641 kcal/mol | 788.131 kg/m3 and 788.126 kg/m3
x1 = 0.005205 | -0.0096 kcal/mol | 788.964 kg/m3
x1 = 0.005206 | -0.00957 kcal/mol | 788.971 kg/m3
x1 = 0.006928 | -0.0128 kcal/mol | 789.788 kg/m3
x1 = 0.006929 | -0.0127 kcal/mol | 789.802 kg/m3
x1 = 0.008643 | -0.0159 kcal/mol | 790.602 kg/m3
x1 = 0.008647 | -0.0159 kcal/mol | 790.625 kg/m3
x1 = 0.01035 | -0.019 kcal/mol | 791.405 kg/m3
x1 = 0.01036 | -0.019 kcal/mol | 791.414 kg/m3

Cc1cccc(C)n1 [2,6-dimethylpyridine] + O
Conditions | excess molar enthalpy, [3] [kcal/mol] | mass density, [2] [kg/m3]
x1 = 0.000772 | -0.00277 | 996.946
x1 = 0.000773 | -0.00281 | 996.945
x1 = 0.001543 | -0.00565 | 996.862
x1 = 0.001544 | -0.00567 | 996.861
x1 = 0.002312 | -0.00855 | 996.792
x1 = 0.002314 | -0.0086 | 996.791
x1 = 0.00308 | -0.0115 | 996.732
x1 = 0.003083 | -0.0115 | 996.734
x1 = 0.003847 | -0.0144 | 996.685
x1 = 0.003851 | -0.0144 | 996.684
x1 = 0.004615 | -0.0173 | 996.644
x1 = 0.004618 | -0.0173 | 996.644

Cc1cccnc1 [3-methylpyridine]
Conditions | mass density [kg/m3]
[1] | 952.61

Cc1cccnc1 [3-methylpyridine] + CO
Conditions | excess molar enthalpy, [3] [kcal/mol] | mass density, [2]
x1 = 0.002075 | – | 787.397 kg/m3
x1 = 0.004143 | -0.00457 | 788.32 kg/m3
x1 = 0.004144 | -0.00455 | 788.293 kg/m3
x1 = 0.006201 | -0.00684 | 789.24 kg/m3
x1 = 0.006203 | -0.00681 | 789.213 kg/m3
x1 = 0.008251 | -0.00912 | 790.158 kg/m3
x1 = 0.008253 | -0.00905 | 790.117 kg/m3
x1 = 0.01029 | -0.0113 | 791.057 kg/m3 and 791.007 kg/m3
x1 = 0.01232 | -0.0135 | 791.892 kg/m3

Cc1cccnc1 [3-methylpyridine] + O
Conditions | excess molar enthalpy, [3] | mass density, [2]
x1 = 0.000922 | -0.00213 kcal/mol and -0.00212 kcal/mol | 997.03 kg/m3 and 997.031 kg/m3
x1 = 0.001842 | -0.00422 kcal/mol and -0.0042 kcal/mol | 997.017 kg/m3 and 997.018 kg/m3
x1 = 0.00276 | -0.00626 kcal/mol | 997.008 kg/m3
x1 = 0.002761 | -0.00629 kcal/mol | 997.007 kg/m3
x1 = 0.003677 | -0.00828 kcal/mol | 996.999 kg/m3
x1 = 0.003678 | -0.00833 kcal/mol | 996.998 kg/m3
x1 = 0.004592 | -0.0103 kcal/mol | 996.991 kg/m3
x1 = 0.004594 | -0.0103 kcal/mol | 996.989 kg/m3
x1 = 0.005507 | -0.0122 kcal/mol | 996.982 kg/m3
x1 = 0.005509 | -0.0122 kcal/mol | 996.98 kg/m3

Cc1ccncc1 [4-methylpyridine]
Conditions | mass density [kg/m3]
[1] | 949.87

Cc1ccncc1 [4-methylpyridine] + CO
Conditions | excess molar enthalpy, [3] | mass density, [2]
x1 = 0.004138 | -0.00498 kcal/mol | 788.325 kg/m3
x1 = 0.004139 | -0.00496 kcal/mol | 788.319 kg/m3
x1 = 0.006195 | -0.00746 kcal/mol and -0.00747 kcal/mol | 789.246 kg/m3 and 789.247 kg/m3
x1 = 0.008243 | -0.00988 kcal/mol | 790.15 kg/m3
x1 = 0.008244 | -0.00991 kcal/mol | 790.152 kg/m3
x1 = 0.01028 | -0.0123 kcal/mol | 791.066 kg/m3 and 791.039 kg/m3
x1 = 0.01231 | -0.0146 kcal/mol | 791.923 kg/m3
x1 = 0.01232 | -0.0146 kcal/mol | 791.924 kg/m3
